Measurements as given in PubChem BioAssay (NCI).
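The concentration for 50% growth inhibition is given as GI50. TGI: concentration producing complete growth inhibition.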

Columns and labels:
Test in all cases: NCI-60 cell line screen, 384-well format
SF-539 CNS = test system: SF-539 CNS
UACC-62 melanoma = test system: UACC-62 melanoma
HCC-2998 colon = test system: HCC-2998 colon
MDA-MB-231 breast = test system: MDA-MB-231 breast
LOX IMVI melanoma = test system: LOX IMVI melanoma
T-47D breast = test system: T-47D breast
SW-620 colon = test system: SW-620 colon
ACHN renal = test system: ACHN renal
MDA-MB-468 breast = test system: MDA-MB-468 breast
NCI-H322M lung = test system: NCI-H322M lung
NCI-H226 lung = test system: NCI-H226 lung
UACC-257 melanoma = test system: UACC-257 melanoma
COLO 205 colon = test system: COLO 205 colon
MOLT-4 leukemia = test system: MOLT-4 leukemia
MDA-MB-435 melanoma = test system: MDA-MB-435 melanoma
SR leukemia = test system: SR leukemia
RPMI-8226 leukemia = test system: RPMI-8226 leukemia
MCF7 breast = test system: MCF7 breast
NCI-H23 lung = test system: NCI-H23 lung
OVCAR-4 ovarian = test system: OVCAR-4 ovarian
BT-549 breast = test system: BT-549 breast
786-0 renal = test system: 786-0 renal
SNB-75 CNS = test system: SNB-75 CNS
M14 melanoma = test system: M14 melanoma
CAKI-1 renal = test system: CAKI-1 renal
IGROV1 ovarian = test system: IGROV1 ovarian
A549 NSCLC = test system: A549 NSCLC
EKVX NSCLC = test system: EKVX NSCLC
SK-OV-3 ovarian = test system: SK-OV-3 ovarian
RXF 393 renal = test system: RXF 393 renal
CCRF-CEM leukemia = test system: CCRF-CEM leukemia
HL-60(TB) leukemia = test system: HL-60(TB) leukemia
SK-MEL-28 melanoma = test system: SK-MEL-28 melanoma
UO-31 renal = test system: UO-31 renal
HCT-15 colon = test system: HCT-15 colon
NCI/ADR-RES ovarian = test system: NCI/ADR-RES ovarian
NCI-H522 lung = test system: NCI-H522 lung
NCI-H460 NSCLC = test system: NCI-H460 NSCLC
SNB-19 CNS = test system: SNB-19 CNS
OVCAR-3 ovarian = test system: OVCAR-3 ovarian
SN12C renal = test system: SN12C renal
HS 578T breast = test system: HS 578T breast
OVCAR-8 ovarian = test system: OVCAR-8 ovarian
KM12 colon = test system: KM12 colon
A498 renal = test system: A498 renal
PC-3 prostate = test system: PC-3 prostate
K-562 leukemia = test system: K-562 leukemia
HT29 colon = test system: HT29 colon
SF-268 CNS = test system: SF-268 CNS
HOP-62 NSCLC = test system: HOP-62 NSCLC
SF-295 CNS = test system: SF-295 CNS
MALME-3M melanoma = test system: MALME-3M melanoma
OVCAR-5 ovarian = test system: OVCAR-5 ovarian
DU-145 prostate = test system: DU-145 prostate
SK-MEL-5 melanoma = test system: SK-MEL-5 melanoma

C=CC(=O)N1C[C@H](COc2nc(Nc3cnn(C)c3)nc3[nH]cc(Cl)c23)[C@@H](OC)C1
GI50 (SF-539 CNS): 1.21 µM
TGI (SF-539 CNS): 3.2 µM
GI50 (UACC-62 melanoma): 0.912 µM
TGI (UACC-62 melanoma): 13.5 µM
GI50 (HCC-2998 colon): 3.86 µM
TGI (HCC-2998 colon): 15 µM
GI50 (MDA-MB-231 breast): 2.78 µM
TGI (MDA-MB-231 breast): > 100 µM
GI50 (LOX IMVI melanoma): 1.52 µM
TGI (LOX IMVI melanoma): 11.6 µM
GI50 (T-47D breast): 4.63 µM
TGI (T-47D breast): 18 µM
GI50 (SW-620 colon): 0.673 µM
TGI (SW-620 colon): 2.11 µM
GI50 (ACHN renal): 1.94 µM
TGI (ACHN renal): 15.4 µM
GI50 (MDA-MB-468 breast): 0.267 µM
TGI (MDA-MB-468 breast): 0.628 µM
GI50 (NCI-H322M lung): 1.39 µM
TGI (NCI-H322M lung): 13.8 µM
GI50 (NCI-H226 lung): 0.394 µM
TGI (NCI-H226 lung): 9.42 µM
GI50 (UACC-257 melanoma): 5.21 µM
TGI (UACC-257 melanoma): 17.1 µM
GI50 (COLO 205 colon): 0.54 µM
TGI (COLO 205 colon): 11.1 µM
GI50 (MOLT-4 leukemia): 0.308 µM
TGI (MOLT-4 leukemia): 0.833 µM
GI50 (MDA-MB-435 melanoma): 4.27 µM
TGI (MDA-MB-435 melanoma): 20.9 µM
GI50 (SR leukemia): 0.19 µM
TGI (SR leukemia): 0.351 µM
GI50 (RPMI-8226 leukemia): 1 µM
TGI (RPMI-8226 leukemia): 3.47 µM
GI50 (MCF7 breast): 2.02 µM
TGI (MCF7 breast): 15.6 µM
GI50 (NCI-H23 lung): 1.59 µM
TGI (NCI-H23 lung): 9.36 µM
GI50 (OVCAR-4 ovarian): 1.75 µM
TGI (OVCAR-4 ovarian): 23.6 µM
GI50 (BT-549 breast): 0.47 µM
TGI (BT-549 breast): 10.3 µM
GI50 ([…]-0 renal): 4.84 µM
TGI (786-0 renal): 41.8 µM
GI50 (SNB-75 CNS): 0.467 µM
TGI (SNB-75 CNS): 1.88 µM
GI50 (M14 melanoma): 2.17 µM
TGI (M14 melanoma): 18.2 µM
GI50 (CAKI-1 renal): 1.17 µM
TGI (CAKI-1 renal): 11.9 µM
GI50 (IGROV1 ovarian): 0.852 µM
TGI (IGROV1 ovarian): 3.31 µM
GI50 (A549 NSCLC): 2.25 µM
TGI (A549 NSCLC): 13.1 µM
GI50 (EKVX NSCLC): 1.31 µM
TGI (EKVX NSCLC): 7.08 µM
GI50 (SK-OV-3 ovarian): 0.556 µM
TGI (SK-OV-3 ovarian): 5.05 µM
GI50 (RXF 393 renal): 5.76 µM
TGI (RXF 393 renal): 22.3 µM
GI50 (CCRF-CEM leukemia): 0.242 µM
TGI (CCRF-CEM leukemia): 0.544 µM
GI50 (HL-60(TB) leukemia): 0.408 µM
TGI (HL-60(TB) leukemia): 1.55 µM
GI50 (SK-MEL-28 melanoma): 3.82 µM
TGI (SK-MEL-28 melanoma): 16.8 µM
GI50 (UO-31 renal): 7.62 µM
TGI (UO-31 renal): > 100 µM
GI50 (HCT-15 colon): 2.93 µM
TGI (HCT-15 colon): 12.3 µM
GI50 (NCI/ADR-RES ovarian): 29.3 µM
TGI (NCI/ADR-RES ovarian): > 100 µM
GI50 (NCI-H522 lung): 0.281 µM
TGI (NCI-H522 lung): 0.858 µM
GI50 (NCI-H460 NSCLC): 1.81 µM
TGI (NCI-H460 NSCLC): 11.6 µM
GI50 (SNB-19 CNS): 5.2 µM
TGI (SNB-19 CNS): 23.1 µM
GI50 (OVCAR-3 ovarian): 2.72 µM
TGI (OVCAR-3 ovarian): 23.6 µM
GI50 (SN12C renal): 0.633 µM
TGI (SN12C renal): 12.8 µM
GI50 (HS 578T breast): 1.37 µM
TGI (HS 578T breast): 4.19 µM
GI50 (OVCAR-8 ovarian): 4.15 µM
TGI (OVCAR-8 ovarian): 18.7 µM
GI50 (KM12 colon): 0.287 µM
TGI (KM12 colon): 14.3 µM
GI50 (A498 renal): 0.584 µM
TGI (A498 renal): 21.4 µM
GI50 (PC-3 prostate): 4.53 µM
TGI (PC-3 prostate): 20.5 µM
GI50 (K-562 leukemia): 2.14 µM
TGI (K-562 leukemia): 12.3 µM
GI50 (HT29 colon): 4.01 µM
TGI (HT29 colon): > 100 µM
GI50 (SF-268 CNS): 1.93 µM
TGI (SF-268 CNS): 12.3 µM
GI50 (HOP-62 NSCLC): 4.05 µM
TGI (HOP-62 NSCLC): 26.5 µM
GI50 (SF-295 CNS): 13.3 µM
TGI (SF-295 CNS): 31.5 µM
GI50 (MALME-3M melanoma): 8.86 µM
TGI (MALME-3M melanoma): 21.2 µM
GI50 (OVCAR-5 ovarian): 5.34 µM
TGI (OVCAR-5 ovarian): > 100 µM
GI50 (DU-145 prostate): 2.26 µM
TGI (DU-145 prostate): > 100 µM
GI50 (SK-MEL-5 melanoma): 3.01 µM
TGI (SK-MEL-5 melanoma): 12.2 µM
